In patent US7622497B2, “Derivatives of gambogic acid and analogs as activators of caspases and inducers of apoptosis” (Cytovia, Inc., priority 2003, dated 2009):

Key:
[1] = system: T-47D; assay: Caspase cascade activation (DEVD-R110 fluorogenic substrate) in T-47D cells; format: cell-based, Human; conditions: 24 h incubation; for EC50: Homo sapiens, T47D, read-out: Caspase potency EC50 T-47D; for Caspase activity (Ratio) T-47D: ratio of net RFU of compound to control, 0.16 to 10 μM final
Protocol: (§1) Human breast cancer cell lines T-47D and DLD were grown according to media component mixtures designated by American Type Culture Collection+10% FCS Invitrogen Corporation), in a 5% CO2-95% humidity incubator at 37° C. T-47D and DLD cells were maintained at a cell density between 30 and 80% confluency and for HL-60 at a cell density of 0.1 to 0.6×10^6 cells/ml. Cells were harvested at 600×g and resuspended at 0.65×10^6 cells/mL into appropriate media+10% FCS. An aliquot of 45 μl of cells was added to a well of a 96-well microtiter plate containing 5 μl of a 10% DMSO in RPMI-1640 media solution containing 1.6 to 100 μM of novel derivative of gambogic acid (0.16 to 10 μM final). An aliquot of 45 μl of cells was added to a well of a 96-well microtiter plate containing 5 μl of a 10%. DMSO in RPMI-1640 media solution without test compound as the control sample. The samples were mixed by agitation and then incubated at 37° C. for 24 h in a 5% CO2-95% humidity incubator. After incubation, the samples were removed from the incubator and 50 μl of a solution containing 20 μM of N-(Ac-DEVD)-N′-ethoxycarbonyl-R110 fluorogenic substrate SEQ ID NO:1 (Cytovia, Inc.; U.S. Pat. No. 6,335,429), 20% sucrose (Sigma), 20 mM DTT (Sigma), 200 mM NaCl (Sigma), 40 mM Na PIPES buffer pH 7.2 (Sigma), and 500 μg/ml lysolecithin (Calbiochem) was added. The samples were mixed by agitation and incubated at room temperature. Using a fluorescent plate reader (Model 1420 Wallac Instruments), an initial reading (T=0) was made approximately 1-2 min after addition of the substrate solution, employing excitation at 485 nm and emission at 530 nm, to determine the background fluorescence of the control sample. After approximately 3 h of incubation, the samples were read for fluorescence as above (T=3 h).
(§2) The Relative Fluorescence Unit values (RFU) were used to calculate the sample readings as follows: RFU(T=3h)−Control RFU(T=0)=Net RFU(T=3h)
(§3) The activity of caspase cascade activation was determined by the ratio of the net RFU value for derivatives of gambogic acid to that of control samples. The EC50 (nM) was determined by a sigmoidal dose-response calculation (Prism 2.0, GraphPad Software Inc.).

[2] = system: DLD; assay: Caspase cascade activation (DEVD-R110 fluorogenic substrate) in DLD cells; format: cell-based, Human; conditions: 24 h incubation; for EC50: Homo sapiens, read-out: Caspase potency EC50 DLD; for Caspase activity (Ratio) DLD: ratio of net RFU of compound to control, 0.16 to 10 μM final
Protocol: as §1, §2, §3

[3] = system: DLD; assay: Inhibition of cell proliferation (GI50), DLD; format: cell-based; conditions: Homo sapiens; DLD cells, 48 h, CellTiter 96 AQueous
Protocol: (§4) T-47D, DLD-1, MX-1, SW620, H1299, HEK293T and HEK293H cells were grown and harvested as in Example 11. An aliquot of 90 μL of cells (2.2×10^4 cells/mL) was added to a well of a 96-well microtiter plate containing 10 μl of a 10% DMSO in RPMI-1640 media solution containing 1 nM to 100 μM of novel derivative of gambogic acid (Example 2; 0.1 nM to 10 μM final). An aliquot of 90 μL of cells was added to a well of a 96-well microtiter plate containing 10 μL of a 10% DMSO in RPMI-1640 media solution without compound as the control sample for maximal cell proliferation (AMax). The samples were mixed by agitation and then incubated at 37° C. for 48 h in a 5% CO2-95% humidity incubator. After incubation, the samples were removed from the incubator and 20 μL of CellTiter 96 AQUEOUS One Solution Cell Proliferation™ reagent (Promega) was added. The samples were mixed by agitation and incubated at 37° C. for 2-4 h in a 5% CO2-95% humidity incubator. Using an absorbance plate reader (Model 1420 Wallac Instruments), an initial reading (T=0) was made approximately 1-2 min after addition of the solution, employing absorbance at 490 nm. This determines the possible background absorbance of the test compounds. No absorbance for the derivative of gambogic acid was found at 490 nm. After the 2-4 h incubation, the samples were read for absorbance as above (ATest). […]

[4] = system: H1299; assay: Inhibition of cell proliferation (GI50), H1299; format: cell-based; conditions: Homo sapiens, NCI-H1299; H1299 cells, 48 h, CellTiter 96 AQueous
Protocol: as §4

[5] = system: HEK293H; assay: Inhibition of cell proliferation (GI50), HEK293H; format: cell-based; conditions: HEK293-H; HEK293H cells, 48 h, CellTiter 96 AQueous
Protocol: as §4

[6] = system: T47D; assay: Inhibition of cell proliferation (GI50), T47D; format: cell-based; conditions: Homo sapiens; T47D cells, 48 h, CellTiter 96 AQueous
Protocol: as §4

[7] = system: HEK293T; assay: Inhibition of cell proliferation (GI50), HEK293T; format: cell-based; conditions: Homo sapiens, HEK-293T; HEK293T cells, 48 h, CellTiter 96 AQueous
Protocol: as §4

[8] = system: SW620; assay: Inhibition of cell proliferation (GI50), SW620; format: cell-based; conditions: Homo sapiens, SW-620; SW620 cells, 48 h, CellTiter 96 AQueous
Protocol: as §4

[9] = system: MX-1; assay: Inhibition of cell proliferation (GI50), MX-1; format: cell-based; conditions: Homo sapiens, MX1; MX-1 cells, 48 h, CellTiter 96 AQueous
Protocol: as §4

| Compound | EC50 [1] [µM] | Caspase activity (Ratio) T-47D [1] | EC50 [2] [µM] | Caspase activity (Ratio) DLD [2] | GI50 [3] [µM] | GI50 [4] [µM] | GI50 [5] [µM] | GI50 [6] [µM] | GI50 [7] [µM] | GI50 [8] [µM] | GI50 [9] [µM] |
| --- | --- | --- | --- | --- | --- | --- | --- | --- | --- | --- | --- |
| CC(C)=CCCC1(C)C=Cc2c(O)c3c(c(CC=C(C)C)c2O1)OC12C(=CC4CC1C(C)(C)OC2(C/C=C(/C)C(=O)OCCN1CCOCC1)C4=O)C3=O (centres unmarked) [Example 1, 2-(Morpholin-4-yl)-ethyl gambogate] | 0.303 | 18 | 0.35 | 7.6 |  |  |  |  |  |  |  |
| CC(C)=CCCC1(C)C=Cc2c(O)c3c(c(CC=C(C)C)c2O1)OC12C(=CC4CC1C(C)(C)OC2(C/C=C(/C)C(=O)OCCN(C)C)C4=O)C3=O (centres unmarked) [Example 2, 2-Dimethylaminoethyl gambogate] | 0.676 | 17 | 1.04 | 7.2 | 0.173 | 0.184 | 0.192 | 0.187 | 0.44 | 0.18 | 0.101 |
| CC(C)=CCCC1(C)C=Cc2c(O)c3c(c(CC=C(C)C)c2O1)OC12C(=CC4CC1C(C)(C)OC2(C/C=C(/C)C(=O)NCCCN1CCN(C)CC1)C4=O)C3=O (centres unmarked) [Example 3, N-[3-(4-Methyl-piperazin-1-yl)-propyl]gambogamide] | 1.66 | 13 | 2.12 | 5.8 |  |  |  |  |  |  |  |
| CC(C)=CCCC1(C)C=Cc2c(O)c3c(c(CC=C(C)C)c2O1)OC12C(=CC4CC1C(C)(C)OC2(C/C=C(/C)C(=O)NCCCN1CCOCC1)C4=O)C3=O (centres unmarked) [Example 4, N-(3-Morpholin-4-yl-propyl)gambogamide] | 0.638 | 15 | 0.824 | 7.2 |  |  |  |  |  |  |  |
| COC(=O)/C(C)=C\CC12OC(C)(C)C3CC(C=C4C(=O)c5c(O)c6c(c(CC=C(C)C)c5OC431)OC(C)(CCC(O)C(C)(C)O)C=C6)C2=O (centres unmarked) [Example 5, Methyl 37,38-Dihydroxy-gambogate] | 0.75 | 17 | 1.29 | 7.2 |  |  |  |  |  |  |  |
| COC(=O)/C(C)=C\CC12OC(C)(C)C3CC(C1=O)C(N1CCOCC1)C1C(=O)c4c(O)c5c(c(CC=C(C)C)c4OC132)OC(C)(CCC(O)C(C)(C)O)C=C5 (centres unmarked) [Example 6, Methyl 37,38-Dihydroxy-9,10-dihydro-10-morpholinyl-gambogate] | 1.17 | 17 | 2.4 | 9.2 |  |  |  |  |  |  |  |
| COC(=O)/C(C)=C\CC12OC(C)(C)C3CC(C1=O)C(N1CCOCC1)C1C(=O)c4c(O)c5c(c(CC=C(C)C)c4OC132)OC(C)(CCC=O)C=C5 (centres unmarked) [Example 7, Methyl 20-Ethylaldehyde-9,10-dihydro-10-morpholinyl-morellinate] | 1.11 | 16 | 1.36 | 5.8 |  |  |  |  |  |  |  |
